How the values were obtained:
succinate dehydrogenase = target: T1, succinate dehydrogenase (Sus scrofa, UniProt A5GZW8+D0VWV4+Q007T0); assay: Enzyme activity assay, succinate dehydrogenase (DCIP reduction); format: biochemical, porcine; conditions: read-out: Inhibitors (10 μM, SQR)
T1 construct: isolated from porcine hearts; from tissue; host or cells: porcine heart
In short: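 Porcine heart succinate dehydrogenase (2 nM) in 100 mM sodium phosphate pH 7.4, 0.3 mM EDTA, 20 mM sodium succinate and 53 μM DCIP at 23° C with stirring. DCIP reduction followed at 600 nm (ε 21 mM^−1 cm^−1); linear slope minus baseline gives initial rate.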

Erysiphe graminis = Erysiphe graminis potting method; format: in vivo; conditions: Blumeria graminis, read-out: Erysiphe graminis control rating; for pest or weed control at 100 µg/mL: 100 mg/L; for pest or weed control at 6.25 µg/mL: 6.25 mg/L; for pest or weed control at 25 µg/mL: 25 mg/L
Protocol: The fungicidal activity of the control agents and target compounds are determined. The test and investigation method refers to SOP-SC-1116 Erysiphe graminis potting method in disinfectant rolls written by KANGZHUO and GUBAOGEN in “Standard operation specification for testing biological activity of pesticides”.

Sphaerotheca fuliginea = Sphaerotheca fuliginea potting method; format: in vivo; conditions: Podosphaera fuliginea; 100 mg/L; read-out: Sphaerotheca fuliginea control rating
Protocol: The fungicidal activity of the control agents and target compounds are determined. The test and investigation method refers to SOP-SC-1101 sphaerotheca fuliginea potting method in disinfectant rolls written by KANGZHUO and GUBAOGEN in “Standard operation specification for testing biological activity of pesticides”.

T1 sequence (Q0QF01 43-664 partner): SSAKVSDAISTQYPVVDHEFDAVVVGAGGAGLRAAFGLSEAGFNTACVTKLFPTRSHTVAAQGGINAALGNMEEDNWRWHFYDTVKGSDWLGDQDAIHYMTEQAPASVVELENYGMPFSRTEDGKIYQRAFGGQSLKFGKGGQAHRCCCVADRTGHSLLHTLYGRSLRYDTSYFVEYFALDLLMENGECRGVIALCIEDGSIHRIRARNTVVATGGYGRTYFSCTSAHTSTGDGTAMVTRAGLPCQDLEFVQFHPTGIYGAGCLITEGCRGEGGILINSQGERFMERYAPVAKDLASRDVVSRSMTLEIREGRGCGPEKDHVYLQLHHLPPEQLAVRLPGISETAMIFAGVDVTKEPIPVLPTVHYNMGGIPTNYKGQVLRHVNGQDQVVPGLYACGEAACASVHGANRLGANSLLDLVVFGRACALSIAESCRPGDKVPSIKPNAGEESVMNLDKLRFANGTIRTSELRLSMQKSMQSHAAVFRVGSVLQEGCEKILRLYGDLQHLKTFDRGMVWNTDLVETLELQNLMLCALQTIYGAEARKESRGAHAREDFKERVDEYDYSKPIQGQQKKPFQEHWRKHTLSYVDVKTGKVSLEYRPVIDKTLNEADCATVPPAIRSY
T1 sequence (Q007T0 29-280): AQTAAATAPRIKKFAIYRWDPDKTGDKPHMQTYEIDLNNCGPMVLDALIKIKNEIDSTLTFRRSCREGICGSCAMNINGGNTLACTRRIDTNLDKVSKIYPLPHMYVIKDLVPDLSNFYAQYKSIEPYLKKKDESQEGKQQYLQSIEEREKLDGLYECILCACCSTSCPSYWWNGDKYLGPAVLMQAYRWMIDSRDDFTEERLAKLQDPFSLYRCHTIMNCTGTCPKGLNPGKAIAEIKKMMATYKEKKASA
T1 sequence (D0VWV4 30-169): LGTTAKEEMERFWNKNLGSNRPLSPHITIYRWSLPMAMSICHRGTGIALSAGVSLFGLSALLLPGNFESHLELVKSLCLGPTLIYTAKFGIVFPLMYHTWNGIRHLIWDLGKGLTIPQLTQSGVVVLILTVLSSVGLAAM
T1 sequence (A5GZW8 57-159 limits assumed): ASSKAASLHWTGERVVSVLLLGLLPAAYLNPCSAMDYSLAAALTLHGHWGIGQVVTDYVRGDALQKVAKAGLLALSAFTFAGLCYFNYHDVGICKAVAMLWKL

Row | SMILES | inhibition at 10 µM (succinate dehydrogenase) [%] | pest or weed control at 100 µg/mL (Erysiphe graminis) [%] | pest or weed control at 100 µg/mL (Sphaerotheca fuliginea) [%] | pest or weed control at 6.25 µg/mL (Erysiphe graminis) [%] | pest or weed control at 25 µg/mL (Erysiphe graminis) [%]
1 | C=C(c1c(Br)cccc1Br)C(C)N(C(=O)c1c(C(F)F)nn(C)c1F)C1CC1 (stereo not shown) [Compound 84] | > 90 | 80 to 100 | 80 to 100 | – | –
2 | C=C(c1cc(Cl)ccc1Cl)C(C)N(C(=O)c1c(C(F)F)nn(C)c1F)C1CC1 (stereo not shown) [Compound 76] | > 90 | 80 to 100 | 80 to 100 | – | –
3 | C=C(c1ccc(Cl)cc1Cl)C(C)N(C(=O)c1c(C(F)F)nn(C)c1F)C1CC1 (stereo not shown) [Compound 67] | > 90 | 80 to 100 | 80 to 100 | – | –
4 | Cn1nc(C(F)F)c(C(=O)N(CC(=C(Cl)Cl)c2ccc(Cl)cc2)C2CC2)c1Cl [Compound 113] | > 90 | 80 to 100 | 80 to 100 | – | –
5 | C=C(CN(C(=O)c1c(C(F)F)nn(C)c1F)C1CC1)c1c(F)cccc1F [Compound 25] | > 90 | 80 to 100 | 80 to 100 | – | –
6 | C=C(CN(C(=O)c1c(C(F)F)nn(C)c1F)C1CC1)c1ccc(C)cc1 [Compound 4] | > 90 | 80 to 100 | < 70 | – | –
7 | C=C(CN(C(=O)c1c(C(F)F)nn(C)c1F)C1CC1)c1cccc(F)c1F [Compound 12] | > 90 | 80 to 100 | 70 to 80 | – | –
8 | C=C(c1c(C)cc(C)cc1C)C(C)N(C(=O)c1c(C(F)F)nn(C)c1F)C1CC1 (stereo not shown) [Compound 91] | > 90 | 80 to 100 | 80 to 100 | – | –
9 | C=C(CN(C(=O)c1c(C(F)F)nn(C)c1F)C1CC1)c1c(C)cc(C)cc1C [Compound 36] | > 90 | 80 to 100 | 80 to 100 | 80 to 100 | 80 to 100
10 | C=C(CN(C(=O)c1c(C(F)F)nn(C)c1F)C1CC1)c1c(C)cccc1C [Compound 35] | > 90 | 80 to 100 | 80 to 100 | 70 to 80 | 80 to 100
11 | C=C(CN(C(=O)c1c(C(F)F)nn(C)c1F)C1CC1)c1ccc(S(=O)(=O)CC)cc1 [Compound 52] | > 90 | 80 to 100 | 80 to 100 | – | –
12 | C=C(CN(C(=O)c1c(C(F)F)nn(C)c1F)C1CC1)c1ccccc1F [Compound 20] | > 90 | 80 to 100 | 80 to 100 | – | –
13 | Cn1nc(C(F)F)c(C(=O)N(CC(=C(Cl)Cl)c2ccccc2)C2CC2)c1F [Compound 111] | > 90 | 80 to 100 | 80 to 100 | – | –
14 | C=C(CN(C(=O)c1c(C(F)F)nn(C)c1F)C1CC1)c1cccc(Br)c1 [Compound 5] | > 90 | 80 to 100 | < 70 | – | –
15 | C=C(c1ccc(Br)cc1)C(C)N(C(=O)c1c(C(F)F)nn(C)c1F)C1CC1 (stereo not shown) [Compound 66] | > 90 | 80 to 100 | 80 to 100 | – | –
16 | C=C(CN(C(=O)c1c(C(F)F)nn(C)c1F)C1CC1)c1cc(Cl)ccc1F [Compound 44] | > 90 | 80 to 100 | 80 to 100 | – | –
17 | C=C(c1ccc(Cl)cc1F)C(C)N(C(=O)c1c(C(F)F)nn(C)c1F)C1CC1 (stereo not shown) [Compound 97] | > 90 | 80 to 100 | 80 to 100 | – | –
18 | C=C(CN(C(=O)c1c(C(F)F)nn(C)c1F)C1CC1)c1cccc(Cl)c1Cl [Compound 8] | > 90 | 80 to 100 | 80 to 100 | – | –
19 | C=C(CN(C(=O)c1c(C(F)F)nn(C)c1F)C1CC1)c1ccc(Br)cc1Br [Compound 28] | > 90 | 80 to 100 | 80 to 100 | – | –
20 | C=C(CN(C(=O)c1c(C(F)F)nn(C)c1F)C1CC1)c1ccccc1Cl [Compound 7] | > 90 | 80 to 100 | 80 to 100 | – | –
21 | C=C(c1cc(C(C)C)ccc1C)C(C)N(C(=O)c1c(C(F)F)nn(C)c1F)C1CC1 (stereo not shown) [Compound 92] | > 90 | 80 to 100 | 80 to 100 | – | –
22 | C=C(CN(C(=O)c1c(C(F)F)nn(C)c1F)C1CC1)c1cc(Cl)cc(Cl)c1 [Compound 2] | > 90 | 80 to 100 | 80 to 100 | – | –
23 | C=C(c1c(F)cc(F)cc1F)C(C)N(C(=O)c1c(C(F)F)nn(C)c1F)C1CC1 (stereo not shown) [Compound 79] | > 90 | 80 to 100 | 80 to 100 | – | –
24 | C=C(CN(C(=O)c1c(C(F)F)nn(C)c1F)C1CC1)c1ccccc1Br [Compound 3] | > 90 | 80 to 100 | 80 to 100 | – | –
25 | C=C(CN(C(=O)c1c(C(F)F)nn(C)c1F)C1CC1)c1ccccc1C [Compound 6] | > 90 | 80 to 100 | 80 to 100 | – | –

Second part, led by results:

Row | inhibition at 10 µM (succinate dehydrogenase) [%] | SMILES | pest or weed control at 100 µg/mL (Erysiphe graminis) [%] | pest or weed control at 100 µg/mL (Sphaerotheca fuliginea) [%] | pest or weed control at 6.25 µg/mL (Erysiphe graminis) [%] | pest or weed control at 25 µg/mL (Erysiphe graminis) [%]
26 | > 90 | Cc1ccc(C(=C(Cl)Cl)C(C)N(C(=O)c2c(C(F)F)nn(C)c2F)C2CC2)cc1 (stereo not shown) [Compound 203] | 80 to 100 | 80 to 100 | – | –
27 | > 90 | Cn1nc(C(F)F)c(C(=O)N(CC(=C(Cl)Cl)c2c(Cl)cc(Cl)cc2Cl)C2CC2)c1F [Compound 123] | 80 to 100 | 80 to 100 | – | –
28 | > 90 | CC(C(=C(Cl)Cl)c1ccccc1Cl)N(C(=O)c1c(C(F)F)nn(C)c1F)C1CC1 (stereo not shown) [Compound 168] | 80 to 100 | 80 to 100 | – | –
29 | > 90 | Cc1cccc(C(=C(Cl)Cl)C(C)N(C(=O)c2c(C(F)F)nn(C)c2F)C2CC2)c1 (stereo not shown) [Compound 192] | 80 to 100 | 80 to 100 | – | –
30 | > 90 | Cn1nc(C(F)F)c(C(=O)N(CC(=C(Cl)Cl)c2ccc(F)c(F)c2)C2CC2)c1F [Compound 130] | 80 to 100 | 80 to 100 | – | –
31 | > 90 | CC(C(=C(Cl)Cl)c1c(Br)cc(Br)cc1Br)N(C(=O)c1c(C(F)F)nn(C)c1F)C1CC1 (stereo not shown) [Compound 190] | 80 to 100 | 80 to 100 | – | –
32 | > 90 | Cn1nc(C(F)F)c(C(=O)N(CC(=C(Cl)Cl)c2ccc(F)cc2Cl)C2CC2)c1F [Compound 154] | 80 to 100 | 80 to 100 | – | –
33 | > 90 | CC(C(=C(Cl)Cl)c1ccc(C#CC2CC2)cc1Cl)N(C(=O)c1c(C(F)F)nn(C)c1F)C1CC1 (stereo not shown) [Compound 218] | 80 to 100 | 80 to 100 | – | –
34 | > 90 | CC(C(=C(Cl)Cl)c1ccc(Br)cc1Br)N(C(=O)c1c(C(F)F)nn(C)c1F)C1CC1 (stereo not shown) [Compound 187] | 80 to 100 | 80 to 100 | – | –
35 | > 90 | Cc1ccc(C(=C(Cl)Cl)C(C)N(C(=O)c2c(C(F)F)nn(C)c2F)C2CC2)cc1C (stereo not shown) [Compound 204] | 80 to 100 | 80 to 100 | – | –
36 | > 90 | Cn1nc(C(F)F)c(C(=O)N(CC(=C(Cl)Cl)c2cc(Cl)cc(Cl)c2)C2CC2)c1F [Compound 122] | 80 to 100 | 80 to 100 | – | –
37 | > 90 | CCS(=O)(=O)c1ccc(C(=C(Cl)Cl)C(C)N(C(=O)c2c(C(F)F)nn(C)c2F)C2CC2)cc1 (stereo not shown) [Compound 216] | 80 to 100 | 80 to 100 | – | –
38 | > 90 | Cc1cc(C)c(C(=C(Cl)Cl)C(C)N(C(=O)c2c(C(F)F)nn(C)c2F)C2CC2)c(C)c1 (stereo not shown) [Compound 196] | 80 to 100 | 80 to 100 | – | –
39 | > 90 | CC(C(=C(Cl)Cl)c1c(F)cccc1F)N(C(=O)c1c(C(F)F)nn(C)c1F)C1CC1 (stereo not shown) [Compound 181] | 80 to 100 | 80 to 100 | – | –
40 | > 90 | CC(C(=C(Cl)Cl)c1cccc(C(F)(F)F)c1Cl)N(C(=O)c1c(C(F)F)nn(C)c1F)C1CC1 (stereo not shown) [Compound 210] | 80 to 100 | 80 to 100 | – | –
41 | > 90 | CC(C(=C(Cl)Cl)c1ccc(F)cc1F)N(C(=O)c1c(C(F)F)nn(C)c1F)C1CC1 (stereo not shown) [Compound 179] | 80 to 100 | 80 to 100 | – | –
42 | > 90 | Cn1nc(C(F)F)c(C(=O)N(CC(=C(Cl)Cl)c2c(Br)cccc2Br)C2CC2)c1F [Compound 136] | 80 to 100 | 80 to 100 | – | –
43 | > 90 | CC(C(=C(Cl)Cl)c1cc(C(F)(F)F)ccc1Cl)N(C(=O)c1c(C(F)F)nn(C)c1F)C1CC1 (stereo not shown) [Compound 209] | 80 to 100 | 80 to 100 | – | –
44 | > 90 | Cc1cc(C)cc(C(CN(C(=O)c2c(C(F)F)nn(C)c2F)C2CC2)=C(Cl)Cl)c1 [Compound 152] | 80 to 100 | 80 to 100 | – | –

Reference: patent US12540118B2, “Dendrene amide compound, bactericide and use thereof” (Jiangsu Flag Chemical Industry Co., Ltd., priority 2020, dated 2026)
